Laboratory results reported in the SangsterLogP compilation.

| SMILES | logP |
| --- | --- |
| CC(=O)OCC1=C(C(=O)O)N2C(=O)C(NC(=O)Cc3ccc([N+](=O)[O-])o3)C2SC1 (centres undefined) | 0.72 |
| CC(=O)OCC1=C(C(=O)O)N2C(=O)C(NC(=O)Cc3ccc(-c4ccccc4Cl)o3)C2SC1 (centres undefined) | 2.42 |
| CC1=C(C(=O)O)N2C(=O)C(NC(=O)Cc3ccco3)C2SC1 (centres undefined) | -0.13 |
| CC1=C(C(=O)O)N2C(=O)C(NC(=O)Cc3ccc(-c4ccccc4)o3)C2SC1 (centres undefined) | 1.66 |
| CC(=O)OCC1=C(C(=O)O)N2C(=O)C(NC(=O)Cc3ccc(-c4ccc(Cl)cc4)o3)C2SC1 (centres undefined) | 2.76 |
| CC(=O)OCC1=C(C(=O)O)N2C(=O)C(NC(=O)Cc3ccco3)C2SC1 (centres undefined) | 0.09 |
| CC(=O)OCC1=C(C(=O)O)N2C(=O)C(NC(=O)Cc3ccc(-c4c(Cl)cccc4Cl)o3)C2SC1 (centres undefined) | 2.78 |
| CC1=C(C(=O)O)N2C(=O)C(NC(=O)Cc3ccc(-c4c(Cl)cccc4Cl)o3)C2SC1 (centres undefined) | 3.6 |
| CC1=C(C(=O)O)N2C(=O)C(NC(=O)Cc3ccc(-c4ccc(Cl)cc4)o3)C2SC1 (centres undefined) | 2.38 |
